# Reference: patent publication US7399826B1, “Peptide for promoting healing of fractures” (priority 2003, dated 2008)
# No end group written: not given here.
# System: ulnar osteotomies in New Zealand rabbits
# Assay: Ulnar osteotomy fracture healing study in rabbits
# Format: in vivo
# Settings: all rabbits (study and control groups); four-week study
# Protocol: Ulnar osteotomies were carried out in forty, three-month-old New Zealand rabbits. Half of the rabbits were placed in a study group while the other half was placed in a control group. All the rabbits were anesthetized using intramuscular ketamine 35 mg/kg body weight mixed with Xylazine 5 mg/kg body weight and an ophthalmic band with gentamycin ophthalmic ointment. A dose of prophylactic intramuscular cefuraxmine 25 mg/kg body weight was also administered. The forelimb was shaved and prepped in a sterile fashion. Through a posterior incision, the muscles were retracted and the shaft of the ulna was identified. Osteotomy was carried out equidistant between the olecranon and the wrist joint. The osteotomy was irrigated with normal saline. The wound was closed in layers and dressed with betadine and opsite spray. The animals were kept together in similar conditions. On the third post-operative day, the study group was injected with about 2.5-5 mg/kg of the peptide, synthesized as described above, in 0.25 ml of sterile water around the osteotomy site, while the control group received 0.25 ml of normal saline at the osteotomy site. Every week, five rabbits in the control group and five in the study group were sacrificed and their limbs were dissected and stored in 2% formalin. The study was carried out for four weeks. […]
sequence,measurement,value
"MIFVKTLTGKTIL [SHMSP, Met-Ile-Phe-Val-Lys-Thr-Leu-Thr-Gly-Lys-Thr-Ile-Leu]","tolerability (wound infections, deaths)",no wound infections or deaths
